Each structure is given as a SMILES string.

The target in this assay is HSP90 (Homo sapiens, UniProt P07900). The assay can be described thus: HSP90 inhibition (HSP90 IC50). Type of assay: biochemical.
Usually IC50 stands for the concentration at which inhibition is half-maximal. Take `CC(=O)c1ccc(N2[C@@H]3CC[C@H]2C[C@@H](NC(=O)c2ccc(C(N)=O)c(NC4CCNC4)c2)C3)nc1` (stereo partly drawn) [N4-[8-(5-acetylpyridin-2-yl)-8-azabicyclo[3.2.1]oct.3-endo-yl]-2-(pyrrolidin-3-ylamino)benzene-1,4-dicarboxamide]: the IC50 is less than 500 nM.

`NC(=O)c1ccc(C(=O)N[C@H]2C[C@H]3CC[C@@H](C2)N3c2ccc(C(=O)CCC3CCCCC3)cn2)cc1NCC1CC1` [N4-{8-[5-(3-cyclohexylpropanoyl)pyridin-2-yl]-8-azabicyclo[3.2.1]oct-3-endo-yl}-2-[(cyclopropylmethyl)amino]benzene-1,4-dicarboxamide] yielded an IC50 of 1000 to 2000 nM.

Compound `NC(=O)c1ccc(N2[C@@H]3CC[C@H]2C[C@@H](NC(=O)c2ccc(C(N)=O)c(NC4CCC4)c2)C3)nc1` [N4-{8-[5-(aminocarbonyl)pyridin-2-yl]-8-azabicyclo[3.2.1]oct-3-endo-yl}-2-(cyclobutylamino)benzene-1,4-dicarboxamide] yielded an IC50 of less than 500 nM.

For the compound `NC(=O)c1ccc(N2[C@@H]3CC[C@H]2C[C@@H](NC(=O)c2ccc(C(N)=O)c(OCCN4CCOCC4)c2)C3)nc1` [N4-{8-[5-(aminocarbonyl)pyridin-2-yl]-8-azabicyclo[3.2.1]oct-3-endo-yl}-2-[(2-morpholin-4-ylethyl)oxybenzene-1,4-dicarboxylate], the IC50 lay within 1000 to 2000 nM.

With `NC(=O)c1ccc(N2C3CCC2CC(NC(=O)c2ccc(C(N)=O)c(N[C@H]4CC[C@H](O)CC4)c2)C3)nc1` (stereo partly drawn) [N4-{8-[5-(aminocarbonyl)pyridin-2-yl]-8-azabicyclo[3.2.1]oct-3-endo-yl}-2-[(4-hydroxycyclohexyl)amino]benzene-1,4-dicarboxamide], the IC50 was less than 500 nM.

Regarding `NC(=O)c1ccc(N2C3CCC2CC(NC(=O)c2ccc(C(N)=O)c(N[C@H]4CC[C@H](N)CC4)c2)C3)nc1` (stereo partly drawn) [N4-{8-[5-(aminocarbonyl)pyridin-2-yl]-8-azabicyclo[3.2.1]oct-3-endo-yl}-2-[(trans-4-aminocyclohexyl)amino]benzene-1,4-dicarboxamide], the IC50 is less than 500 nM.

The compound `COCCNc1cc(C(=O)N[C@H]2C[C@H]3CC[C@@H](C2)N3c2ccc(C(N)=O)cn2)ccc1C(N)=O` [N4-{8-[5-(aminocarbonyl)pyridin-2-yl]-8-azabicyclo[3.2.1]oct-3-endo-yl}-2-{[2-(methyloxy)ethyl]amino}benzene-1,4-dicarboxamide] yielded an IC50 of less than 500 nM.

Take `CS(=O)(=O)CCNc1cc(C(=O)N[C@H]2C[C@H]3CC[C@@H](C2)N3c2ccc(C(N)=O)cn2)ccc1C(N)=O` [N4-{8-[5-(aminocarbonyl)pyridin-2-yl]-8-azabicyclo[3.2.1]oct-3-endo-yl}-2-{[2-(methylsulfonyl)ethyl]amino}benzene-1,4-dicarboxamide]: the IC50 is less than 500 nM.

On to `COc1ccc(Nc2cc(C(=O)N[C@H]3C[C@H]4CC[C@@H](C3)N4c3ccc(C(N)=O)cn3)ccc2C(N)=O)cc1OCCN(C)C` [N4-{8-[5-(aminocarbonyl)pyridin-2-yl]-8-azabicyclo[3.2.1]oct-3-endo-yl}-2-{[3-{[2-(dimethylamino)ethyl]oxy}-4-(methyloxy)phenyl]amino}benzene-1,4-dicarboxamide], for which the IC50 is less than 500 nM.

The compound `NC(=O)c1ccc(C(=O)N[C@H]2C[C@H]3CC[C@@H](C2)N3c2ccc(C(=O)C3CCC3)cn2)cc1NCC1CC1` [N4-{8-[5-(cyclobutylcarbonyl)pyridin-2-yl]-8-azabicyclo[3.2.1]oct-3-endo-yl}-2-[(cyclopropylmethyl)amino]benzene-1,4-dicarboxamide] showed an IC50 of 1000 to 2000 nM.

Turning to `NC(=O)c1ccc(C(=O)N[C@H]2C[C@H]3CC[C@@H](C2)N3c2ccc(C(=O)C3CCCC3)cn2)cc1NCC1CC1` [N4-{8-[5-(cyclopentylcarbonyl)pyridin-2-yl]-8-azabicyclo[3.2.1]oct-3-endo-yl}-2-[(cyclopropylmethyl)amino]benzene-1,4-dicarboxamide], the IC50 lay within 2000 to 10000 nM.

As to `CCCNc1cc(C(=O)N[C@H]2C[C@H]3CC[C@@H](C2)N3c2ccc(C(=O)C3CC3)cn2)ccc1C(N)=O` [N4-{8-[5-(cyclopropylcarbonyl)pyridin-2-yl]-8-azabicyclo[3.2.1]oct-3-endo-yl}-2-(propylamino)benzene-1,4-dicarboxamide], the IC50 is less than 500 nM.

On to `NC(=O)c1ccc(C(=O)N[C@H]2C[C@H]3CC[C@@H](C2)N3c2ccc(C(=O)C3CC3)cn2)cc1Nc1ccncc1` [N4-{8-[5-(cyclopropylcarbonyl)pyridin-2-yl]-8-azabicyclo[3.2.1]oct-3-endo-yl}-2-(pyridin-4-ylamino)benzene-1,4-dicarboxamide], for which the IC50 was less than 500 nM.

In the case of `CC(C)OCCNc1cc(C(=O)N[C@H]2C[C@H]3CC[C@@H](C2)N3c2ccc(C(=O)C3CC3)cn2)ccc1C(N)=O` [N4-{8-[5-(cyclopropylcarbonyl)pyridin-2-yl]-8-azabicyclo[3.2.1]oct-3-endo-yl}-2-({2-[(1-methylethyl)oxy]ethyl}amino)benzene-1,4-dicarboxamide], the IC50 is less than 500 nM.

`CC(Nc1cc(C(=O)N[C@H]2C[C@H]3CC[C@@H](C2)N3c2ccc(C(=O)C3CC3)cn2)ccc1C(N)=O)C1CC1` (stereo partly drawn) [N4-{8-[5-(cyclopropylcarbonyl)pyridin-2-yl]-8-azabicyclo[3.2.1]oct-3-endo-yl}-2-[(1-cyclopropylethyl)amino]benzene-1,4-dicarboxamide] gave an IC50 of less than 500 nM.

`CCC(CC)Nc1cc(C(=O)N[C@H]2C[C@H]3CC[C@@H](C2)N3c2ccc(C(=O)C3CC3)cn2)ccc1C(N)=O` [N4-{8-[5-(cyclopropylcarbonyl)pyridin-2-yl]-8-azabicyclo[3.2.1]oct-3-endo-yl}-2-[(1-ethylpropyl)amino]benzene-1,4-dicarboxamide] came in with an IC50 of less than 500 nM.

With `CCC(C)Nc1cc(C(=O)N[C@H]2C[C@H]3CC[C@@H](C2)N3c2ccc(C(=O)C3CC3)cn2)ccc1C(N)=O` (stereo partly drawn) [N4-{8-[5-(cyclopropylcarbonyl)pyridin-2-yl]-8-azabicyclo[3.2.1]oct-3-endo-yl}-2-[(1-methylpropyl)amino]benzene-1,4-dicarboxamide], the IC50 is less than 500 nM.

`NC(=O)c1ccc(C(=O)N[C@H]2C[C@H]3CC[C@@H](C2)N3c2ccc(C(=O)C3CC3)cn2)cc1NCC1CC1` [N4-{8-[5-(cyclopropylcarbonyl)pyridin-2-yl]-8-azabicyclo[3.2.1]oct-3-endo-yl}-2-[(cyclopropylmethyl)amino]benzene-1,4-dicarboxamide]: the IC50 is less than 500 nM.

Compound `NC(=O)c1ccc(C(=O)NC2CC3CCC(C2)N3c2ccc(C(=O)C3CC3)cn2)cc1N[C@H]1CC[C@H](N2CCCCC2)CC1` (stereo partly drawn) [N4-{8-[5-(cyclopropylcarbonyl)pyridin-2-yl]-8-azabicyclo[3.2.1]oct-3-endo-yl}-2-[(trans-4-piperidin-1-ylcyclohexyl)amino]benzene-1,4-dicarboxamide] showed an IC50 of less than 500 nM.

The compound `CC[C@@H](C)Nc1cc(C(=O)NC2CC3CCC(C2)N3c2ccc(C(=O)C3CC3)cn2)ccc1C(N)=O` (stereo partly drawn) [N4-{8-[5-(cyclopropylcarbonyl)pyridin-2-yl]-8-azabicyclo[3.2.1]oct-3-endo-yl}-2-{[(1R)-1-methylpropyl]amino}benzene-1,4-dicarboxamide] had an IC50 of less than 500 nM.

The compound `CC(C)[C@H](C)Nc1cc(C(=O)NC2CC3CCC(C2)N3c2ccc(C(=O)C3CC3)cn2)ccc1C(N)=O` (stereo partly drawn) [N4-{8-[5-(cyclopropylcarbonyl)pyridin-2-yl]-8-azabicyclo[3.2.1]oct-3-endo-yl}-2-{[(1S)-1,2-dimethylpropyl]amino}benzene-1,4-dicarboxamide] displayed an IC50 of less than 500 nM.

Consider `CC[C@H](C)Nc1cc(C(=O)NC2CC3CCC(C2)N3c2ccc(C(=O)C3CC3)cn2)ccc1C(N)=O` (stereo partly drawn) [N4-{8-[5-(cyclopropylcarbonyl)pyridin-2-yl]-8-azabicyclo[3.2.1]oct-3-endo-yl}-2-{[(1S)-1-methylpropyl]amino}benzene-1,4-dicarboxamide], for which the IC50 is less than 500 nM.

For `NC(=O)c1ccc(C(=O)N[C@H]2C[C@H]3CC[C@@H](C2)N3c2ccc(C(=O)C3CC3)cn2)cc1NCC(F)(F)C(F)(F)F` [N4-{8-[5-(cyclopropylcarbonyl)pyridln-2-yl]-8-azabicyclo[3.2.1]oct-3-endo-yl}-2-[(2,2,3,3,3-pentafluoropropyl)amino]benzene-1,4-dicarboxamide], the IC50 was less than 500 nM.

`COc1ccc(CNC(=O)c2ccc(N3[C@@H]4CC[C@H]3C[C@@H](NC(=O)c3cccc(OC)c3C)C4)nc2)cc1OC` [N {[3,4-bis(methyloxy)phenyl]methyl}-6-[3-endo-({[2-methyl-3-(methyloxy)phenyl]carbonyl}amino)-8-azabicyclo[3.2.1]oct-8-yl]pyridine-3-carboxamide] yielded an IC50 of less than 500 nM.

`COc1cccc(C(=O)N[C@H]2C[C@H]3CC[C@@H](C2)N3c2ccc(C(=O)Nc3ccc4c(c3)OCO4)cn2)c1C` [N-1,3-benzodioxol-5-yl-6-[3-endo-({[2-methyl-3-(methyloxy)phenyl]carbonyl}amino)-8-azabicyclo[3.2.1]oct-8-yl]pyridine-3-carboxamide] came in with an IC50 of 1000 to 2000 nM.

The compound `COc1cccc(C(=O)N[C@H]2C[C@H]3CC[C@@H](C2)N3c2ccc(C(=O)NCc3ccc4c(c3)OCO4)cn2)c1C` [N-(1,3-benzodioxol-5-ylmethyl)-6-[3-endo-({[2-methyl-3-(methyloxy)phenyl]carbonyl}amino)-8-azabicyclo[3.2.1]oct-8-yl]pyridine-3-carboxamide] registered an IC50 of less than 500 nM.

`COc1cccc(C(=O)N[C@H]2C[C@H]3CC[C@@H](C2)N3c2ccc(C(=O)NC(C)C)cn2)c1C` [N-(1-methylethyl)-6-[3-endo-({[2-methyl-3-(methyloxy)phenyl]carbonyl}amino)-8-azabicyclo[3.2.1]oct-8-yl]pyridine-3-carboxamide] gave an IC50 of 1000 to 2000 nM.

`COc1cccc(C(=O)NC2CC3CCC(C2)N3c2ccc(C(=O)NCC(O)CO)cn2)c1C` (stereo not drawn) [N-(2,3-dihydroxypropyl)-6-[3-endo-({[2-methyl-3-(methyloxy)phenyl]carbonyl}amino)-8-azabicyclo[3.2.1]oct-8-yl]pyridine-3-carboxamide] came in with an IC50 of 1000 to 2000 nM.

The compound `COc1cccc(C(=O)N[C@H]2C[C@H]3CC[C@@H](C2)N3c2ccc(C(=O)NCCO)cn2)c1C` [N-(2-hydroxyethyl)-6-[3-endo-({[2-methyl-3-(methyloxy)phenyl]carbonyl}amino)-8-azabicyclo[3.2.1]oct-8-yl]pyridine-3-carboxamide] had an IC50 of 2000 to 10000 nM.
